Data: publication PMC7153278, “Discovery of Membrane-Bound Pyrophosphatase Inhibitors Derived from an Isoxazole Fragment” (ACS Medicinal Chemistry Letters, 2020)

Assays:
[1] = molecular target: Thermotoga maritima mPPase (TmPPase) (Thermotoga maritima, UniProt Q9S5X0); experiment: TmPPase inhibition assay (96-well plate, orthophosphate determination); format: biochemical; conditions: for LE (ligand efficiency): computed using the pIC50 and the Heavy Atom Count (LEHA) normalization method, Discovery Studio; for IC50 [CI95%] / IC50: purified TmPPase
Thermotoga maritima mPPase (TmPPase), sequence (Q9S5X0 whole entry): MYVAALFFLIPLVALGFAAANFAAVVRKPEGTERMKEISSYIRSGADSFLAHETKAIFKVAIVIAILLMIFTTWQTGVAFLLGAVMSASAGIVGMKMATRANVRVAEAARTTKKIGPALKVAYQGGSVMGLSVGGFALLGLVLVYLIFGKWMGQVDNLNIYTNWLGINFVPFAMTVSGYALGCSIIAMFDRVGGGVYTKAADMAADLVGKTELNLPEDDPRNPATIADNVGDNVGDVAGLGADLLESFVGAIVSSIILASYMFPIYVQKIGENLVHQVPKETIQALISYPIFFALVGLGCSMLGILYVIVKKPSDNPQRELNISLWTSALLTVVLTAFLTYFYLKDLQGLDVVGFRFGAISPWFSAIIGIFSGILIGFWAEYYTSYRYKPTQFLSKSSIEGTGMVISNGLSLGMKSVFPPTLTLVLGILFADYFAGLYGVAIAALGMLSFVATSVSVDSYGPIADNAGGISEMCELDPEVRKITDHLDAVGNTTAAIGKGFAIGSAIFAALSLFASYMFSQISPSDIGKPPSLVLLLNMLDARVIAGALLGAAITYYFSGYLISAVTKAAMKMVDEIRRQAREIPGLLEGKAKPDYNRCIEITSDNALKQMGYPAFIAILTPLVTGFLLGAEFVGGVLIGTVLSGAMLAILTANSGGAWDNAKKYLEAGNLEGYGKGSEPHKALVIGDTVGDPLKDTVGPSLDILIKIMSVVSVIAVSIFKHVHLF
Experimental: The inhibition assay was measured in 96 well plate assay as previously reported.5,6 Briefly, 1 µL of purified TmPPase (13 mg/mL) was reactivated in 99 µL of reactivation buffer (20 mM 2-(N-morpholino) ethanesulfonic acid (MES) pH 6.5, 3.5% (v/v) glycerol, 2 mM dithiothreitol (DTT), 4.5% dodecyl maltoside (DDM) and 12 mg/mL L-α-phosphatidylcholine from soybean) and incubated at 55 °C for 15 min. For the assay, to each tube strips, 0.2 µL of the reactivated enzyme was added to 14.8 µL of reaction buffer (200 mM Tris-Cl pH 8.0, 8.0 mM MgCl2, 333 mM KCl, and 67 mM NaCl) and 25 µL of inhibitor. The reaction mixtures were sealed with an adhesive sealing sheet (Thermo Scientific) and incubated at 71 °C for 5 min. The reactions were started with the addition of 10 µL of 2 mM sodium pyrophosphate, further incubation at 71 °C for 5 min and stopped by placing the reaction mixtures on ice for 10 min. The color development was done with the addition of ammonium heptamolybdate + ascorbic acid solution on ice for 10 min and then 90 µL of arsenic solution, at room temperature, for a minimum of 30 min. 180 µL of each reaction mixtures was then transferred into a clear 96 well polystyrene microplate and the absorbance was measured at 860 nm using a microplate spectrophotometer (MultiSkan Go, Thermo Scientific). The pilot inhibitor screening of 16 phosphate-mimicking fragments was done at 100 μM inhibitor concentration. Further screening was done with three different concentrations; 1 μM, 5 μM and 50 μM for soluble compounds, and 1 μM, 5 μM, and 20 μM for sparingly soluble compounds.6 The best hits were validated using 8 concentrations in triplicate in TmPPase.
The potent hits 12k and 12l compounds were then tested on the P. falciparum (PfPPase-VP1) membrane fractions expressed in baculovirus-infected insect cells (the expression method and further enzyme analysis will be described in more detail elsewhere). Briefly, to each tube strips, 2.4 µL of PfPPase-VP1 membrane fraction (5 mg/mL) was added into 12.6 µL of reaction buffer (200 mM Tris-Cl pH 8.0, 8.0 mM MgCl2, 333 mM KCl, 67 mM NaCl, 3.3 mM NaF, and 17 μM Gramicidin D) and 25 µL of inhibitor. The reaction mixtures were incubated at 30 °C for 5 min and the assay was started by the addition of 10 µL of 2 mM sodium pyrophosphate and further incubation at 30 °C for 10 min. The reaction termination and color development were done as before.
The in vitro anti-plasmodial activity assay strain 3D7 was maintained in culture as described previously.7 Briefly, parasites were cultured in O+ human erythrocytes at 5% haematocrit in RPMI - 1640 medium supplemented with 0.5% Albumax II (Gibco, Carlsbad, CA, USA), 200 μM hypoxanthine (Sigma, St. Louis, MO, USA) and 20 μg/mL gentamycin (Gibco). Parasites were synchronized with the sorbitol method as described. 8 Test compound was dissolved in DMSO to make a stock solution of 10 mM. Two -fold serial dilutions of the test compound were made in the culture medium to cover the range of 400 µM – 400 nM. Fifty microliters of each dilution were mixed in 96 well plate with 150 µL of 2% haematocrit of 0.5% parasitemia (ring stage). DMSO concentration in the highest compound concentration w as 0.1%. After 72 h incubation at 37 °C, the parasite growth was quantified using fluorescent SYBR Green I ® -based assay as described. 9 The half-maximal inhibitory concentration (IC 50) of the test compound was assessed using the non-linear regression fit model in Prism 7 (GraphPad Software). The potent anti-malarial drug, artemisinin, was use in parallel as a positive control. Each concentration of the test compound was tested in duplicate and the assay was repeated three times. The mean and standard deviation of the three repeats were used to estimate the IC50.
IC50 determinations were done using R 3.6.110 and the n-parameter logistic regression (nplr) package11 version 0.1-7. In this package, the weighted nplr, given x (compound concentrations) and […]

[2] = Colloidal aggregation under TmPPase assay conditions (nephelometry); format: physicochemical
Experimental: Aggregation data for 5, 12k and 12l (Figure S1)
Potential colloidal aggregation in the TmPPase model system was studied at five concentrations (50 µM, 25 µM, 10 µM, 5 µM, and 1 µM). The original assay conditions were simulated, and the light scattering of potential aggregates in the mixture was studied by nephelometric methods using Nepheloskan Ascent® (Labsystems, Finland). Aggregation of the blank and compounds 5, 12k and 12l were measured as triplicates from one independent experiment at three different voltages (300 V, 400 V and 500 V) at room temperature.
5 µM and 1 µM concentrations the obtained values were close to those observed by the blank, thereby […]
Figure S1. Aggregation data for compounds 5, 12k and 12l. The data, measured in relative nephelometric units (RNU), is shown as the mean ± SD and normalized to the blank.
(1 picture or pasted object on this page, not shown here)
Experimental procedures and characterization data
Commercial analogues were retrieved by screening the ZINC12 database1 (clean drug-like subset; downloaded on 27.04.2016) using a KNIME2 workflow connected to the RDKit3 nodes. The SAR analyses and docking studies (data not shown) underlying this work were conducted using the Schrödinger molecular modeling platform (Canvas and Glide modules, respectively)4 .
Compounds 1–7, 13–20 and 24 were obtained from commercial suppliers. Supporting Information, Table S1 summarizes the compounds tested. Compound purity was >95% as determined by LC-MS and characterized by HRMS. For all commercial compounds after the initial screen, purity was tested independently from the vendor specification (a few compounds of lower purity are reported only in Supporting Information). To evaluate potential aggregation of samples in the TmPPase based assay, aggregate formation in the assay conditions was studied at five concentrations (50 μM, 25 μM, 10 μM, 5 μM, and 1 μM) for compounds 5, 12k and 12l (Figure S1).
All chemicals used were commercially available. Reactions using anhydrous conditions were conducted in oven-dried (130 °C, >24 h) glassware, purged with argon prior to use. Microwave reactions were performed using a Biotage Initiator+ instrument (Uppsala, Sweden). The progress of the reactions was monitored by thin-layer chromatography on silica gel 60-F254 aluminum plates and visualized by using a dual short/long wave (254/366 nm) UV lamp. The combined organic solutions from extractions were dried over anhydrous Na2SO4, filtered and concentrated with a rotary evaporator at reduced pressure. Flash SiO2 column chromatography was performed with automated high performance flash chromatography, Biotage Isolera™ Spektra Systems with ACI™ and Assist (ISO-1SW Isolera One) equipped with a variable UV-VIS (200–800 nm) photodiode array (Uppsala, Sweden) using SNAP KP-SIL/Ultra 10 g or 25 g cartridges and the indicated mobile phase gradient.
The reactions were not optimized and all the yields are given for purified products.
Characterization of the synthesized products were done by NMR and MS analysis. 1H and 13C NMR spectra were acquired at 298 K on a Bruker Ascend 400 MHz – Avance III HD NMR spectrometer (Bruker Corporation, Billerica, MA, USA). Chemical shifts (δ) are reported in parts per million (ppm) relative to the residual solvent signals: CDCl3 7.26 and 77.16 ppm, CD3OD 3.31 and 49.00 ppm, DMSO-d6 2.50 and 39.52 ppm for 1H and 13C NMR, respectively. […] High resolution mass (HRMS-ESI) data was reported for the calculated and experimentally […]

[3] = 95% confidence interval in square brackets

SMILES | LE (ligand efficiency) [1] | IC50 [CI95%] [1, 3] | also measured
Cc1cc(C)cc(-c2cc(C(=O)Oc3ccccc3Br)no2)c1 [Compound 12k] | 0.22 | – | aggregation (light scattering) ([2]; at 10 µM, 5 µM and 1 µM): only minor/no detectable aggregation; aggregation (light scattering) ([2]; at 50 µM and 25 µM): showed aggregate formation
Cc1nc(-c2cc(C(=O)O)no2)cs1 [Compound 5] | 0.34 | – | aggregation (light scattering) ([2]; 50, 25, 10, 5 and 1 µM, room temperature): no detectable aggregation at all
CCOC(=O)c1cc(-c2ccc(OC)c(S(=O)(=O)N3CCOCC3)c2)on1 [SI-23] | – | Inactive | –
CC(C)(C)c1cc(C(=O)Nc2nccs2)cc(C(C)(C)C)c1 [Compound 13] | 0.20 | – | –
CC(C)(C)c1cc(C(=O)NCCN2CCOCC2)cc(C(C)(C)C)c1 [SI-48] | – | Inactive | –
CCOC(=O)c1cc(-c2ccc(OC)c(S(=O)(=O)NC3CCCc4ccccc43)c2)on1 (centres unmarked) [SI-19] | 0.14 | – | IC50 ([1]; IC50 [CI95%] (µM), unrounded values of the molecular formula strings file): 29.1 µM; IC50 ([1]; IC50 [CI95%], 95% confidence interval in square brackets): 29 µM
O=C(O)c1ccc2c(c1)B(O)OC2 [SI-3] | – | Inactive | –
CC(=O)Nc1ccc(S(=O)(=O)NC(CO)C(=O)O)cc1 (centres unmarked) [SI-10] | – | Inactive | –
CCOC(=O)c1cc(-c2ccc(OC)cc2)on1 [Compound 10g] | – | Inactive | –
CCOC(=O)c1cc(-c2csc(CS(=O)(=O)c3ccccn3)n2)on1 [SI-14] | – | Inactive | –
Cc1cccc(-c2cc(C(=O)Oc3ccccc3Br)no2)c1 [Compound 12i] | 0.23 | – | –
CC(C)(C)c1cc(C(O)CC(=O)NN)cc(C(C)(C)C)c1 (centres unmarked) [SI-44] | – | Inactive | –
CC(C)(C)c1cc(C(=O)Nc2ccccc2Br)cc(C(C)(C)C)c1 [Compound 15] | 0.18 | – | –
CCOC(=O)c1cc(-c2ccc(OC)c(S(=O)(=O)Nc3cccc(Cl)c3)c2)on1 [SI-30] | – | Inactive | –
CCOC(=O)c1cc(-c2ccc([N+](=O)[O-])cc2)[nH]n1 [SI-51] | – | Inactive | –
CCOC(=O)c1cc(-c2ccccc2)on1 [Compound 10a] | – | Inactive | –
O=C(Oc1ccccc1Br)c1cnc(-c2ccccc2)s1 [Compound 26] | 0.20 | – | fold loss in activity compared to the carboxylic acids ([1]; 2-bromophenyl carboxylates 25 and 26 versus 5 and 23): 1.6 fold
